In the supplement of paper PMC11208160:

Assay: recombinant UMI read abundance after kanamycin selection (control-corrected) (log10(CPM+1)); higher = more efficient recombination; extreme values may be limits of the assay; sequences stand for … in AGTGCAGAGAAAATCGGCCAGTTTTCTCTGCCTGCAGTCCGCATGCCGTGGGACCCCTTGGGTTCTAACCTGTTGCCTAGATTTATGCAGCGGACTGCCTTTCTCCCAAAGTGATAAACCGG…AGGTTGGTTTCACT; site = the 11-nt donor
In short: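 Sequencing read counts were converted to CPM, averaged over two replicates and scaled by control-derived factors. Results are given as log10(CPM+1). The reads covered the donor–target junction of recombinant UMIs from a pooled Escherichia coli screen of donor and donor-binding-loop pairs for the IS621 bridge recombinase.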
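Note: IS621 bridge recombinase in Escherichia coli cells against a fixed T5 target plasmid.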

| Sequence | recombinant UMI read abundance (log10) |
| --- | --- |
| ACACTATCATGGACCGGTTTTCCCGGTAATCCGTATTTGTA (site ACAGTATCTTG) | 0 |
| CATTCCTCATGGACCGGTTTTCCCGGTAATCCGTATTTGCC (site CAATCCTCTGG) | 1.59 |
| TAAGTATCATGGACCGGTTTTCCCGGTAATCCGTATTTGAC (site CTAGTATCTGT) | 1.88 |
| TCACAGACATGGACCGGTTTTCCCGGTAATCCGTATTTGCG (site TCACAGACTCG) | 2.16 |
| GTGCTACCATGGACCGGTTTTCCCGGTAATCCGTATTTGCT (site CTGCTACCTAG) | 0 |
| ACAGTAACATGGACCGGTTTTCCCGGTAATCCGTATTTGCT (site ACAGTATCTTG) | 0.994 |
| TGTTCCCCATGGACCGGTTTTCCCGGTAATCCGTATTTGTA (site TGTTCCCCTTC) | 0.00924 |
| GTTGAGGCATGGACCGGTTTTCCCGGTAATCCGTATTTGTG (site GTCGAGGCTCA) | 0.879 |
| TGTACACCATGGACCGGTTTTCCCGGTAATCCGTATTTGAC (site TGTACACCTCT) | 0.0222 |
| CGCCGCTCATGGACCGGTTTTCCCGGTAATCCGTATTTGCC (site CGCCGCTCTGG) | 2.47 |
| AATGTTTCATGGACCGGTTTTCCCGGTAATCCGTATTTGAC (site AATGTATCTGT) | 1.73 |
| TACGTGACATGGACCGGTTTTCCCGGTAATCCGTATTTGCT (site TACTTGACTAG) | 0.238 |
| GAATGCACATGGACCGGTTTTCCCGGTAATCCGTATTTGTA (site GGATGCACTTA) | 0.585 |
| CGTACACCATGGACCGGTTTTCCCGGTAATCCGTATTTGAC (site GGTACACCTGT) | 0 |
| TTGTGGCCATGGACCGGTTTTCCCGGTAATCCGTATTTGTG (site TTGTGGCCTCA) | 0.0156 |
| GGAGCACCATGGACCGGTTTTCCCGGTAATCCGTATTTGCA (site GGTGCACCTTG) | 0.00599 |
| CTCGCTACATGGACCGGTTTTCCCGGTAATCCGTATTTGAG (site CTCCCTACTCT) | 0.00726 |
| CATTCCTCATGGACCGGTTTTCCCGGTAATCCGTATTTGCC (site CAGTCCTCTGG) | 0 |
| GGCCCTGCATGGACCGGTTTTCCCGGTAATCCGTATTTGTA (site GGCCCTGCTTA) | 0.378 |
| AGGCTTCCATGGACCGGTTTTCCCGGTAATCCGTATTTGCG (site AGGCTTCCTCG) | 0.745 |
| GTCTACACATGGACCGGTTTTCCCGGTAATCCGTATTTGCT (site TTCTACACTAG) | 1.44 |
| ATATATACATGGACCGGTTTTCCCGGTAATCCGTATTTGAC (site ATCTATACTGT) | 0.727 |
| CCGTTCGCATGGACCGGTTTTCCCGGTAATCCGTATTTGTG (site CCGTTCGCTCA) | 0.0261 |
| ATGCATGCATGGACCGGTTTTCCCGGTAATCCGTATTTGGT (site ATGCATGCTAC) | 1.67 |
| CTAATATCATGGACCGGTTTTCCCGGTAATCCGTATTTGAC (site CTAGTATCTGT) | 2.29 |

| Sequence | recombinant UMI read abundance (log10) |
| --- | --- |
| CACTCCTCATGGACCGGTTTTCCCGGTAATCCGTATTTGCT (site CACTCCTCTCG) | 0.583 |
| CGTGGAACATGGACCGGTTTTCCCGGTAATCCGTATTTGTA (site CGTGGAACTTA) | 2.24 |
| TAGCCTTCATGGACCGGTTTTCCCGGTAATCCGTATTTGGT (site TAGCTTTCTAC) | 0 |
| ATCTATACATGGACCGGTTTTCCCGGTAATCCGTATTTGCC (site ATCTATACTGG) | 2.12 |
| GATTGGTCATGGACCGGTTTTCCCGGTAATCCGTATTTGAC (site GATTGGGCTGT) | 0 |
| GATTTGGCATGGACCGGTTTTCCCGGTAATCCGTATTTGTG (site CATTTGGCTCA) | 0.309 |
| GGCTACCCATGGACCGGTTTTCCCGGTAATCCGTATTTGTT (site GGCTACCCTAA) | 0.0101 |
| CGAAATCCATGGACCGGTTTTCCCGGTAATCCGTATTTGTA (site CGAAATCCTTA) | 1.11 |
| CGCGCGCCATGGACCGGTTTTCCCGGTAATCCGTATTTGAG (site CGCGCGCCTCT) | 0.0359 |
| GGTTAGACATGGACCGGTTTTCCCGGTAATCCGTATTTGCC (site GGTTAGACTGG) | 1.9 |
| AGATCAGCATGGACCGGTTTTCCCGGTAATCCGTATTTGGG (site AGCTCAGCTCC) | 0.00476 |
| CGGGGACCATGGACCGGTTTTCCCGGTAATCCGTATTTGGG (site CGTGGACCTCC) | 0.00366 |
| ATTGTAACATGGACCGGTTTTCCCGGTAATCCGTATTTGAG (site ATTGTAACTCT) | 0.94 |
| ACACATCCATGGACCGGTTTTCCCGGTAATCCGTATTTGAC (site GCACATCCTGT) | 0 |
| AGAAAGGCATGGACCGGTTTTCCCGGTAATCCGTATTTGCG (site AGAAAGGCTAG) | 1.07 |
| GTATGTACATGGACCGGTTTTCCCGGTAATCCGTATTTGTA (site GTATGGACTTA) | 0.499 |
| AGGACTACATGGACCGGTTTTCCCGGTAATCCGTATTTGCC (site AGGACTACTGG) | 2.23 |
| AGGAAGACATGGACCGGTTTTCCCGGTAATCCGTATTTGCC (site AGGAAGACTGG) | 1.84 |
| TCTGAGACATGGACCGGTTTTCCCGGTAATCCGTATTTGCG (site TCCGAGACTCG) | 0.022 |
| GCGCAGCCATGGACCGGTTTTCCCGGTAATCCGTATTTGGG (site GCGAAGCCTCC) | 0.0174 |
| GACCAACCATGGACCGGTTTTCCCGGTAATCCGTATTTGGT (site GACTAACCTAC) | 0.00842 |
| AAACTAACATGGACCGGTTTTCCCGGTAATCCGTATTTGCG (site AAACTAACTCG) | 2.09 |
| GCATATCCATGGACCGGTTTTCCCGGTAATCCGTATTTGAC (site GCATATCCTGT) | 1.39 |
| TGTACACCATGGACCGGTTTTCCCGGTAATCCGTATTTGGC (site TGTACACCTGA) | 0 |
| CCGTTGGCATGGACCGGTTTTCCCGGTAATCCGTATTTGTG (site CCGTTTGCTCA) | 0.00375 |

| Sequence | recombinant UMI read abundance (log10) |
| --- | --- |
| CAGGACTCATGGACCGGTTTTCCCGGTAATCCGTATTTGTC (site CAGGACTCTGA) | 3.38 |
| TAATGAGCATGGACCGGTTTTCCCGGTAATCCGTATTTGGA (site TAATGAGCTTC) | 0.729 |
| CTGCTACCATGGACCGGTTTTCCCGGTAATCCGTATTTGCT (site TTGCTACCTAG) | 0.00622 |
| GTAGGGACATGGACCGGTTTTCCCGGTAATCCGTATTTGAC (site GTAGGCACTGT) | 2.04 |
| CCATTATCATGGACCGGTTTTCCCGGTAATCCGTATTTGAC (site CCATTATCTGT) | 0.804 |
| TGGCCTGCATGGACCGGTTTTCCCGGTAATCCGTATTTGGC (site TGGCCTGCTGC) | 0 |
| CGGAATTCATGGACCGGTTTTCCCGGTAATCCGTATTTGTA (site CGGAATCCTAA) | 0.00369 |
| GTTGATCCATGGACCGGTTTTCCCGGTAATCCGTATTTGGT (site GTTGGTCCTAC) | 0.0158 |
| CAGTCGGCATGGACCGGTTTTCCCGGTAATCCGTATTTGGG (site CAGTCGACTCC) | 0.027 |
| GGGGCACCATGGACCGGTTTTCCCGGTAATCCGTATTTGCA (site GGGGTACCTTG) | 0 |
| AGAAAGGCATGGACCGGTTTTCCCGGTAATCCGTATTTGCT (site AGATAGGCTAG) | 1.23 |
| GGCATTCCATGGACCGGTTTTCCCGGTAATCCGTATTTGAA (site GGCAATCCTTT) | 0 |
| TAAGATTCATGGACCGGTTTTCCCGGTAATCCGTATTTGTT (site GAAGATTCTAA) | 0 |
| CGTTAGGCATGGACCGGTTTTCCCGGTAATCCGTATTTGCT (site CGTTTGGCTAG) | 0.00436 |
| CCTGGAACATGGACCGGTTTTCCCGGTAATCCGTATTTGTT (site CATGGAACTAA) | 0.0113 |
| TATTGCACATGGACCGGTTTTCCCGGTAATCCGTATTTGGT (site TATTGCACTAC) | 0.029 |
| GGGGCACCATGGACCGGTTTTCCCGGTAATCCGTATTTGCA (site GTGGCACCTTG) | 0.0102 |
| ACAGTATCATGGACCGGTTTTCCCGGTAATCCGTATTTGTA (site ACAGTATCTTT) | 2.44 |
| TCATACTCATGGACCGGTTTTCCCGGTAATCCGTATTTGCA (site TGATACTCTTG) | 1.78 |
| ACTCATCCATGGACCGGTTTTCCCGGTAATCCGTATTTGAC (site ACGCATCCTGT) | 0.525 |
| AGTGGCTCATGGACCGGTTTTCCCGGTAATCCGTATTTGAG (site AGTGGCTCTCT) | 1.27 |
| AGCTTCCCATGGACCGGTTTTCCCGGTAATCCGTATTTGGG (site AGCTTCCCTCC) | 0.0229 |
| CCCGGTCCATGGACCGGTTTTCCCGGTAATCCGTATTTGCC (site CCCGGTCCTCG) | 0.0293 |
| GCTTCCCCATGGACCGGTTTTCCCGGTAATCCGTATTTGAT (site GCTTGCCCTAT) | 0.00758 |
| AGAAAGGCATGGACCGGTTTTCCCGGTAATCCGTATTTGCT (site AGGAAGGCTAG) | 1.73 |
